The values that follow are results of earlier work, collected in US20090320148A1, “OXYLIPINS FROM STEARIDONIC ACID AND GAMMA-LINOLENIC ACID AND METHODS OF MAKING AND USING THE SAME” (MARTEK BIOSCIENCES CORPORATION, priority 2006, published 2009).

In data set [1] the test system is IL-1β.
The test system of data set [2] is cell migration. The settings on record: comparison with the DHA-derived oxylipin.

On to 10,17-dihydroxy DPAn-6, for which, in data set [1], the “secretion of the pro-inflammatory cytokine IL-1β” value is recorded as “significantly reduced”. Moreover, in data set [1] (comparison with DHA oxylipin derivative and indomethacin), the “reduction of IL-1β secretion compared with DHA oxylipin derivative and indomethacin” value was “significantly larger than with that produced by either the DHA oxylipin derivative or the general anti-inflammatory agent, indomethacin”. The “potency for reduction in IL-1β secretion” value in data set [1] (comparison with the DHA oxylipin) was “more potent than the DHA oxylipin”.
Consider `CCCCCC(O)/C=C/C=C\C/C=C\C/C=C\C/C=C\CCC(=O)O` (centres unmarked) [17-hydroxy DPAn-6], for which the “secretion of the pro-inflammatory cytokine IL-1β” value in data set [1] is on record as “significantly reduced”. Moreover, in data set [2], the “potency for inhibiting cell migration” value is given as “more potent than the DHA-derived oxylipin”.
